Experiments:
Balb/c 3T3 cells [1] = experiment: MTT assay (mitochondrial activity), Balb/c 3T3; assay type: cell-based, mouse; conditions: for Lowest concentration with significant (p ≤ 0.05) inhibition of mitochondrial activity (MTT): Balb/c 3T3, 72 h, vs negative control 0.1% DMSO; for IC50: Balb/c 3T3, 72 h exposure, mean (n = 3) ± SEM, read-out: Inhibitory concentration IC50, MTT
Method: (§1) Data obtained from the measurement of the optical density in these assays were transformed to percentages in relation to the control group, considered to be 100% for the MTT, NRU, and TPC assays and 0% for the LDH assay (Figure 1).
(§2) The human hepatoma cell line (HepG2) was purchased from the American Type Culture Collection (ATCC HB-8065). These cells were cultured in Minimum Essential Medium Eagle (MEME) (ATCC). The murine fibroblast cell line (Balb/c 3T3 clone A31) (gift from Department of Swine Diseases of the National Veterinary Research Institute in Pulawy) was cultured in Dulbecco’s Modified Eagle’s Medium (DMEM) (ATCC). The media were supplemented with 10% BCS (Balb/c 3T3), 10% FBS (HepG2), 1% L-glutamine, and 1% antibiotic solution. The cells were maintained in 75 cm^2 cell culture flasks (Nunc, Roskilde, Denmark) in a humidified incubator, NuAire (Plymouth, MN, USA) at 37 °C, in an atmosphere of 5% CO2. The medium was refreshed every two or three days and the cells were trypsinized by 0.25% trypsin–0.02% EDTA after reaching 70–80% confluence. Single cell suspensions were prepared and adjusted to a density of 2 × 10^5 cells/mL (HepG2) and 5 × 10^4 cells/mL (Balb/c 3T3). The cell suspension was transferred to 96-well plates (100 µL/well) and incubated for 24 h before the exposure to the study compounds.
(§3) The concentration ranges of compounds were chosen according to their solubility and their plasma level. Each compound was dissolved in DMSO. The final concentration of DMSO was 0.1% in the medium. The same final concentrations of the solvent and the 1% Trition-X 100 solution were used as the negative and positive controls, respectively. […] All compound solutions in the medium were freshly prepared and protected from light. […] The concentration range was selected on the basis of results from previous studies. Each concentration was tested in six replicates with three independent experiments. Cytotoxicity was assessed after 72 h of exposure of the cells to the compounds. The medium was not changed during the incubation time.
(§4) The metabolic activity of living cells was assessed by measuring the activity of dehydrogenases. After incubation of the cells with the compounds, a 10 μL portion of the MTT solution (5 mg/ml in PBS) was added to each well of the 96-well plates and incubated. After 3 h, the MTT solution was removed and the intracellular formazan crystals were dissolved in 100 µl DMSO. The plate was shaken for 15 min at room temperature and transferred to a microplate reader (LabSystems Multiskan RC, Thermo Fisher Scientific, Waltham, MA, USA) to measure the absorbance at 570 nm, using blanks as a reference. Cytotoxicity was expressed as a percentage of the negative control (0.1% DMSO).
(§5) The results of the tests were expressed as a mean ± SD. The experiments were performed in three independent repetitions. Statistical analysis was performed using GraphPad Prism 5 (San Diego, CA, USA). One-way analysis of variance (ANOVA) followed by Dunnett’s post-hoc test was applied. The 50% inhibition (cytotoxicity) concentrations (IC50) were derived from the dose–response curve plotted with the concentration of the compound (X-axis) vs. cell viability percent (Y-axis). The IC50 values were calculated by GraphPad Prism 5 software (San Diego, CA, USA). Statistical comparisons among IC50 values were performed by the analysis of variance (ANOVA) followed by the Tukey test. Values of p ≤ 0.05 were considered statistically significant.

Balb/c 3T3 cells [2] = experiment: NRU assay (lysosomal activity), Balb/c 3T3; assay type: cell-based, mouse; conditions: for IC50: Balb/c 3T3, 72 h exposure, mean (n = 3) ± SEM, read-out: Inhibitory concentration IC50, NRU
Method: as §1, §2, §3
(§6) The assay, based on the staining of living cells by neutral red, was performed according to the protocol described by Borenfreund and Puerner. After incubation, the medium containing the compound was removed and the cells were washed with PBS. Then, a 100 µL/well of NR solution (50 µg/mL) was added for 3 h. After that time, the cells were washed with PBS. The dye from viable cells was released by extraction with a mixture of acetic acid, ethanol, and water. After 10 min of shaking, the absorbance of the dissolved NR was measured at 540 nm in a microplate reader (LabSystems Multiskan RC, Thermo Fisher Scientific, Waltham, MA, USA) using a blank as a reference. Cytotoxicity was expressed as a percentage of the negative control (0.1% DMSO).
as §5

Balb/c 3T3 cells [3] = experiment: TPC assay (total protein content), Balb/c 3T3; assay type: cell-based, mouse; conditions: for IC50: Balb/c 3T3, 72 h exposure, mean (n = 3) ± SEM, read-out: Inhibitory concentration IC50, TPC
Method: as §1, §2, §3
(§7) The assay was based upon staining total cellular protein (proliferation). After incubation, the medium containing the compound was removed and 100 µL of Coomassie Brilliant Blue R-250 dye were added to each well. The plate was shaken for 10 min. Then, the stain was removed and the cells were rinsed twice with 100 µL of washing solution (glacial acetic acid/ethanol/water). After that, a 100 µL portion of the desorbing solution (1 M potassium acetate) was added and plates were shaken again for 10 min. The absorbance was measured at 595 nm in a microplate reader (LabSystems Multiskan RC, Thermo Fisher Scientific, Waltham, MA, USA) using a blank as a reference. Cytotoxicity was expressed as a percentage of the negative control (0.1% DMSO).
as §5

Balb/c 3T3 cells [4] = experiment: Leakage LDH assay (cellular membrane integrity), Balb/c 3T3; assay type: cell-based, mouse; conditions: for IC50: Balb/c 3T3, 72 h exposure, mean (n = 3) ± SEM, read-out: Inhibitory concentration IC50, LDH
Method: as §1, §2, §3
(§8) The integrity of the plasma membrane was assessed using the test of lactate dehydrogenase (LDH) release, which was monitored using the commercially available Cytotoxicity Detection Kit (LDH) (Roche Diagnostics, Warsaw, Poland). The medium (100 µL/well) without cells was transferred into the corresponding wells of an optically clear 96-well flat bottom microplate and a 100 µl reaction mixture was added to each well. Then, the plates were incubated for 30 min at room temperature in darkness. After that time, a 50 µL/well 1 M HCl was added to stop the reaction. The absorbance was measured at 492 nm in a microplate reader (LabSystems Multiskan RC, Thermo Fisher Scientific, Waltham, MA, USA) using a blank as a reference.
as §5

HepG2 cells [5] = experiment: MTT assay (mitochondrial activity), HepG2; assay type: cell-based, human; conditions: for IC50: HepG2, 72 h exposure, mean (n = 3) ± SEM, read-out: Inhibitory concentration IC50, MTT
Method: as §1, §2, §3, §4, §5

HepG2 cells [6] = experiment: NRU assay (lysosomal activity), HepG2; assay type: cell-based, human; conditions: for Lowest concentration with significant (p ≤ 0.05) inhibition of lysosomal activity (NRU): HepG2, 72 h, vs negative control 0.1% DMSO; for IC50: HepG2, 72 h exposure, mean (n = 3) ± SEM, read-out: Inhibitory concentration IC50, NRU
Method: as §1, §2, §3, §6, §5

HepG2 cells [7] = experiment: TPC assay (total protein content), HepG2; assay type: cell-based, human; conditions: for Lowest concentration with significant (p ≤ 0.05) decrease of total protein content (TPC): HepG2, 72 h, vs negative control 0.1% DMSO; for IC50: HepG2, 72 h exposure, mean (n = 3) ± SEM, read-out: Inhibitory concentration IC50, TPC
Method: as §1, §2, §3, §7, §5

HepG2 cells [8] = experiment: Leakage LDH assay (cellular membrane integrity), HepG2; assay type: cell-based, human; conditions: for IC50: HepG2, 72 h exposure, mean (n = 3) ± SEM, read-out: Inhibitory concentration IC50, LDH
Method: as §1, §2, §3, §8, §5

[9] = test system: murine melanoma (B16) cell line; parameters: method as in PMID 26828469; conditions: cited from earlier work
[10] = test system: OVCAR-3 (ovarian) cell line; parameters: method as in PMID 18615197; conditions: 72 h; cited from earlier work
[11] = test system: HeLa (cervical) cell line; parameters: method as in PMID 18615197; conditions: 72 h; cited from earlier work
[12] = Balb/c 3T3, 72 h, vs negative control 0.1% DMSO
[13] = HepG2, 72 h, vs negative control 0.1% DMSO

In the case of Cc1ncc([N+](=O)[O-])n1CCO [Metronidazole], the “Lowest concentration with significant (p ≤ 0.05) inhibition of mitochondrial activity (MTT)” value (Balb/c 3T3 cells [1]) is reported as 36 µM, the IC50 (Balb/c 3T3 cells [1]; Mus musculus, BALB/c3T3) is reported as > 146 µM and the IC50 (Balb/c 3T3 cells [2]; Mus musculus, BALB/c3T3) is reported as > 146 µM. The IC50 (Balb/c 3T3 cells [3]; Mus musculus, BALB/c3T3) was > 146 µM, the IC50 (Balb/c 3T3 cells [4]; Mus musculus, BALB/c3T3) was > 146 µM and the IC50 (HepG2 cells [5]; Homo sapiens) was > 146 µM. The “Lowest concentration with significant (p ≤ 0.05) inhibition of lysosomal activity (NRU)” value (HepG2 cells [6]) was 146 µM, the IC50 (HepG2 cells [6]; Homo sapiens) was > 146 µM and the “Lowest concentration with significant (p ≤ 0.05) decrease of total protein content (TPC)” value (HepG2 cells [7]) was 8.8 µM. The IC50 (HepG2 cells [7]; Homo sapiens) was > 146 µM, the IC50 (HepG2 cells [8]; Homo sapiens) was > 146 µM and the “Cytotoxicity in B16 cell line” value ([9]; same observation as in this study) was “poorly cytotoxic”.
With O=[N+]([O-])[O-].[Ag+] [Silver nitrate] the “Lowest concentration with significant (p ≤ 0.05) inhibition of mitochondrial activity (MTT)” value (Balb/c 3T3 cells [1]) was 2.2 µM, the IC50 (Balb/c 3T3 cells [1]) was 2.13 ± 0.88 µM and the “Lowest concentration with significant (p ≤ 0.05) inhibition of lysosomal activity (NRU)” value (Balb/c 3T3 cells [2]; [12]) was 2.2 µM. The IC50 (Balb/c 3T3 cells [2]) was 2.94 ± 1.06 µM, the “Lowest concentration with significant (p ≤ 0.05) decrease of total protein content (TPC)” value (Balb/c 3T3 cells [3]; [12]) was 2.2 µM and the IC50 (Balb/c 3T3 cells [3]) was 2.59 ± 1.3 µM. The “Lowest concentration with significant (p ≤ 0.05) disintegration of the cellular membrane (LDH)” value (Balb/c 3T3 cells [4]; [12]) was 2.2 µM, the IC50 (Balb/c 3T3 cells [4]) was 3.12 ± 0.06 µM and the “Lowest concentration with significant (p ≤ 0.05) inhibition of mitochondrial activity (MTT)” value (HepG2 cells [5]; [13]) was 4.4 µM. The IC50 (HepG2 cells [5]) was 6.48 ± 1.6 µM, the “Lowest concentration with significant (p ≤ 0.05) inhibition of lysosomal activity (NRU)” value (HepG2 cells [6]) was 4.4 µM and the IC50 (HepG2 cells [6]) was 6.18 ± 1.41 µM. The “Lowest concentration with significant (p ≤ 0.05) decrease of total protein content (TPC)” value (HepG2 cells [7]) was 8.8 µM, the IC50 (HepG2 cells [7]) was 60.3 ± 8.1 µM and the “Lowest concentration with significant (p ≤ 0.05) disintegration of the cellular membrane (LDH)” value (HepG2 cells [8]; [13]) was 4.4 µM. The IC50 (HepG2 cells [8]) was 3.47 ± 0.24 µM, the IC50 ([9]; 72 h incubation) was 9.74 µM and the IC50 [10] was 35 µM. The IC50 [11] was 50 µM.
